Laboratory results from patent US11746103B2, “ALK-5 inhibitors and uses thereof” (Sumitomo Pharma Oncology, Inc., priority 2020, dated 2023).

Tests used:
[1] = tested on: bleomycin-induced lung fibrosis; test: Bleomycin-induced lung fibrosis study; type: in vivo, mouse
Text: Fibrosis, the formation of excess connective tissue causing stromal hardening and scar formation is a hallmark of cancer. Up to 20% of cancers are linked to chronic, inflammation-related fibrosis, including hepatocellular, gastric, esophageal, head and neck, colon, pancreatic, cervix, and vulvar cancers. The contribution of fibrosis for early cancer development remains unclear; however, in some advanced solid tumors it is believed that fibrotic tissues act like a barrier, preventing therapeutic agents like chemotherapy or biologics from penetrating the tumor tissue. Additionally, strong fibrotic tissue is thought to contribute to excluding immune cells from entering the tumor core, creating immune excluded or immune desert phenotypes. To evaluate the anti-fibrotic properties of Ex-11, a prophylactic model of bleomycin-induced lung fibrosis in male C57BL/6 mice was utilized, and various endpoints evaluated.
All mice in this study were 8-week-old male C57BL/6 mice purchased from Taconic. On Day −2 prior to bleomycin administration, all animals were weighed and distributed into groups with 10 mice each (Table 18) such that each group of animals contained animals of similar body weights.
On day 0, animals were treated with 1.5 U/kg bleomycin (Blenoxane catalog number NDC 61703-323-22, Hospira Pharmaceutical) intratracheally, except Group 1, which was administered normal saline via oropharyngeal route to serve as the healthy naïve control group. Prophylactic treatment was administered from one day prior to bleomycin administration to day 21 post bleomycin administration. On Day 21, only the morning dose was administered. Animals were harvested on day 21 and lung weights were measured. Body weights of all mice was recorded at least three times a week beginning on Day −2 and ending on the day of harvest, Day 21. Pirfenidone was used as positive control compound, as it is an FDA-approved drug for the treatment of idiopathic pulmonary fibrosis (IPF) in humans. All compounds were prepared in 10% Tween-20 in water; a homogenous suspension was formulated using a magnetic stir bar.
At the end of the study, total lung tissues were weighed and fixed for histological examination, which was conducted by a trained pathologist blinded to the treatment groups. Specifically, whole lungs from each mouse were paraffin-embedded in a single block. Two slides from each block were sectioned to the depth of the mainstem bronchi (near the center of each lobe) and stained with either hematoxylin and eosin (H&E) or Masson's trichrome (MT). Glass slides were evaluated using light microscopy by a board-certified veterinary pathologist. Lung sections were scored according to the methods described below, evaluating five randomly chosen fields in each tissue. Fixed lungs were sectioned, and consecutive tissue sections were stained with H&E or MT. Various pathological scoring parameters were used to determine the average Ashcroft score, as well as average inflammation and collagen deposition indicating fibrosis.
Parameter of scoring formalin fixed lung sections:
Modified Ashcroft Score: H&E-stained lung sections were scored according to the modified Ashcroft scale. Scores for five representative 200× microscopic fields per sample were averaged to obtain a mean score for each animal. […]

[2] = tested on: Cloudman S91 melanoma; test: Cloudman S91 melanoma syngeneic study; conditions: single agents
Method: The objective of this study was to evaluate preclinically the in vivo therapeutic efficacy of EX-11+/−anti-PD-1 therapy for the treatment of subcutaneous Cloudman S91 melanoma model in DBA/2 mice.
Female, DBA/2 mice (aged 7-9 weeks) were inoculated subcutaneously in the right flank region with Cloudman S91 melanoma cells (2×10^5) in 0.1 ml of PBS. Once the mean tumor size reached approximately 100 mm^3 (day 19), 60 mice were randomized to 6 treatment arms (10 mice per arm).
The anti-PD-1 inhibitor used in this study was a product of Crownbio/OEM (Cat #: CVP033, Lot #: 0920L765). The vehicle for the anti-BD-1 inhibitor was PBS. The drug was injected intraperitoneally (i.p.), bi-weekly (BIW) for 3 weeks. The vehicle for EX-11 was 1000 tween-20, 900% ddH2O. The vehicle used for EX-11 was also used for the “Vehicle” arm of the study. EX-11 and the vehicle were delivered via oral gavage (p.o.), bi-daily (BID) for 21 days.
Body weights and tumor volumes were measured 3 times per week. Tumor volumes were measured in two dimensions using a caliper, and the volume was expressed in mm^3 using the formula: V=(L×W×W)/2, where V is tumor volume, L is tumor length (the longest tumor dimension) and W is tumor width (the longest tumor dimension perpendicular to L).
The study was terminated 50 days post-inoculation. […]

[3] = tested on: KGN cells (FOXL2 C134W); test: FOXL2 cell viability assay (Cell Titer Glo), KGN; type: cell-based, human
Method: (§1) EX-11 was submitted to a cell viability assay in KGN and COV434 cell lines. KGN cells are derived from FOXL2^C134W AGCT of a person with a recurrent metastatic GCT. COV434 cells are derived from FOXL2WT JGCT of a person with a recurrent metastatic GCT. The cells were seeded in triplicate in 96 well culture plates and treated with nine, 3-fold dilutions of EX-11 or DMSO for 6 days (KGN) or 3 days (Cov434), which represented 3 cell doublings, respectively. Viability was assessed by Cell Titer Glo (Promega).

[4] = Method: Female, athymic nude mice (aged 6-8 weeks) were randomized to one of 12 study arms (n=3 per arm) (Table 16) and weighed prior to dosing. Mice were dosed via oral gavage either once daily (QD), or bi-daily (BID) for five days. […] The vehicle for PF-06952229 (PF) was 10% DMSO, 40% PEG300, 5% tween-80, 45% saline. For the vehicle alone group in this study, the PF-06952229 vehicle was used. At the end of each day for 10 days, mice were weighed, and symptoms of toxicity (if present) were recorded. A qualitative determination of overall toxicity was made based on the number and severity of symptoms for each cohort. The safety margin was determined at the end of day 10 based on the following equation: (maximum tolerated dose)/(minimum effective dose).
[5] = tested on: COV434 cells (wild-type FOXL2); test: FOXL2 cell viability assay (Cell Titer Glo), COV434; type: cell-based; conditions: Homo sapiens, 72 h, 3 days
Method: as §1

[6] = tested on: cancer associated fibroblast (CAF) genes in human primary dermal fibroblasts; test: CAF gene suppression assay (qPCR); type: cell-based
Method: Human primary dermal fibroblasts (ATCC) were divided into four groups: DMSO-TGFβ, DMSO+TGFβ (1 ng/mL), 30 nM EX-11+TGFβ (1 ng/mL), and 300 nM EX-11+TGFβ (1 ng/mL). Cells were treated for 24 hours, then mRNA was extracted, quantified, and reverse transcribed. qPCR was run for the following cancer associated fibroblast (CAF) genes: ACTA2, FAP, ITGB1, CD9, TAGLN, ANTXR1, SOC1, Lamp5, Col1A2, and TGFβ1, using the TaqMan system in a Quant Studio.

[7] = tested on: EMT6 tumors; test: Immunohistochemistry (CD31, CD45) of EMT6 tumors; type: in vivo, mouse
Text: EX-11 is an ALK5 inhibitor that has been proposed to affect multiple processes in the tumor microenvironment through downregulation of TGF-β signaling, including vasculature remodeling and leukocyte infiltration. The objective of this study was to compare the levels of CD31 and CD45, subject to different treatment conditions in 4T1, EMT6, and S91 tumors. CD31 is an established marker of vascular differentiation, and CD45 is an established marker of leukocytes.
For IHC analyses, tumors from three syngeneic models of cancer were used: • 1) Example L: 4T1 (triple-negative breast cancer [TNBC]); Balb/c mice • 2) Example K: EMT6 (TNBC); Balb/C mice • 3) Example M: S91 (melanoma); DBA/2 mice
Tumors were fixed in formalin for 48 hours, then stored in […] prior to paraffin embedding. Embedded blocks were sectioned at […] and placed on glass slides for IHC staining.
Leica Biosystems Bond Software and Leica Bond Rx Research Stainer were used per protocol to stain tissue sections. […] Images were manually scored by a pathologist, blinded to treatment information. […] CD45 was scored by calculating the number of CD45-positive cells divided by the total number of viable nucleated cells within the whole tumor region(s). CD31 density was scored by calculating the total number of CD31 positive vessels divided by the whole tumor area (mm^2).

With Cc1cccc2c(Nc3ccnc(Nc4cccc(N5CCOCC5)c4)n3)cnnc12 [EX-11, N4-(8-methylcinnolin-4-yl)-N2-(3-morpholinophenyl)pyrimidine-2,4-diamine] the body weight loss ([1]; 75 mg/kg twice a day) was “No severe weight loss of over 5-10%”, the “average Ashcroft score” value ([1]; H&E, vs bleomycin/vehicle) was “highly statistically significant reduction in the average score” and the “average lung inflammation score” value ([1]; H&E, vs bleomycin/vehicle) was “highly statistically significant reduction in the average score”. For the same compound, the “average lung fibrosis/collagen deposition score” value ([1]; Masson's trichrome, vs bleomycin/vehicle) was “highly statistically significant reduction in the average score”, the “lung weight normalized to total animal weight (lung weight index)” value ([1]; day 21, vs bleomycin/vehicle) was “highly statistically significant” and the total lung weight ([1]; day 21, vs bleomycin/vehicle) was “significant decrease in lung weight”. The “survival compared with the vehicle control” value [2] was “did not exhibit an increase in survival”, the “sensitivity of KGN cells relative to COV434 cells” value [3] was greater than 70 fold and the IC50 ([3]; Homo sapiens, 144 h, KGN cells, 6 days) was 140 nM. The minimum effective dose ([4]; BID, based on prior studies with EX-11) was 150 mg/kg, the “safety margin (maximum tolerated dose)/(minimum effective dose)” value ([4]; female, athymic nude, mouse, in vivo, 10 days) was no less than 6.7 fold and the IC50 [5] was greater than 10000 nM. The “TAGLN, Lamp5 and TGFβ1 expression” value ([6]; 300 nM + TGFβ 1 ng/mL) was “returned to baseline”, the “decrease of FAP, SDC1 and Col1A2 expression from baseline” value ([6]; 300 nM + TGFβ 1 ng/mL) was 20-30% and the “TGFβ-induced upregulation of CAF gene expression” value ([6]; 30 and 300 nM + TGFβ 1 ng/mL, 24 hours, all genes except CD9) was “dose dependently reversed”. The “CD31 staining (blood vessel density)” value [7] was “no difference in CD31 staining” and the “CD45 (percentage of CD45+ cells)” value ([7]; vs anti-PD-1 and vehicle groups) was “increased”.
